Experimental data: patent publication US12357652B2, “Formulations of phosphoramidate derivatives of nucleoside drugs” (priority 2015, dated 2025)

Legend:
[1] = Solubility of NUC-7738 in a range of solvents; format: physicochemical
[2] = NUC-7738 solutions in NMP, DMSO, DMA diluted with saline, observed for precipitation; format: physicochemical
Experimental: (§1) Even a solubiliser is not effective, in the absence of a polar aprotic solvent, at retaining NUC-7738 in solution in aqueous conditions. The solutions prepared above were assayed for NUC-7738 content and purity on being formed and also after 48 h. […] In a further experiment, the […] concentration of NUC-7738 in solvents that could be diluted with saline without precipitation was determined. Solutions of NUC-7738 (mixture of diastereoisomers) at various concentrations in NMP, DMSO and DMA were prepared and 100 µL of the solutions were added to 2.40 mL saline.

[3] = NUC-7738 concentrate mixed with Tween 80 and added to saline, checked by eye for precipitation; assay and purity after 48 h; format: physicochemical
Experimental: 50 µL of a 100 mg/mL concentrate of NUC-7738 (mixture of diastereoisomers) in a range of solvents (DMA, DMSO, NMP, ethanol, benzyl alcohol) was mixed with 50 µL of Tween® 80 and added to 1.150 mL saline and the resultant solutions were checked by eye for precipitation of NUC-7738. Similarly a 50 µL concentrate of NUC-7738 (mixture of diastereoisomers) in Tween® 80 was mixed with 50 µL water for injection and then added to 1.150 mL saline.
as §1

[4] = cited from earlier work
[5] = solutions of Table 8, after 48 h versus on being formed

**Q.** With `C[C@H](NP(=O)(OC[C@@H]1C[C@@H](O)[C@H](n2cnc3c(N)ncnc32)O1)Oc1ccccc1)C(=O)OCc1ccccc1` (stereo partly drawn) [NUC-7738, 3′-deoxyadenosine-5′-O-[phenyl(benzyloxy-L-alaninyl)] phosphate] as the molecule, how does the Solubility ([1]; 5% Tween in water) read?
**A.** <11.8 mg/mL

**Q.** And the Solubility ([1]; DMA)?
**A.** >667 mg/mL

**Q.** What about the Solubility ([1]; DMSO) of the same molecule?
**A.** >667 mg/mL

**Q.** What about the Solubility ([1]; Ethanol) of the same molecule?
**A.** >667 mg/mL

**Q.** What about the Solubility ([1]; Heptane) of the same molecule?
**A.** <12 mg/mL

**Q.** And the Solubility ([1]; NMP)?
**A.** >667 mg/mL

**Q.** What about the Solubility ([1]; Propylene Glycol) of the same molecule?
**A.** >667 mg/mL

**Q.** And the Solubility ([1]; isopropylacetate)?
**A.** <9 mg/mL

**Q.** What about the Solubility ([1]; tbutylmethylether) of the same molecule?
**A.** <11 mg/mL

**Q.** What about the Appearance ([2]; DMA 25 mg/ml concentrate 100 + Saline 2400) of the same molecule?
**A.** White insoluble precipitate from the first drop

**Q.** What about the Appearance ([2]; DMSO 25 mg/ml concentrate 100 + Saline 2400) of the same molecule?
**A.** White precipitate after addition of 100 μL

**Q.** And the Appearance ([2]; DMSO 50 mg/ml concentrate 100 + Saline 2400)?
**A.** White insoluble precipitate from the first drop

**Q.** And the Appearance ([2]; DMSO 100 mg/ml concentrate 100 + Saline 2400)?
**A.** White insoluble precipitate from the first drop

**Q.** What about the Appearance ([2]; NMP 25 mg/ml concentrate 100 + Saline 2400) of the same molecule?
**A.** Clear and limpid solution

**Q.** What about the Appearance ([2]; NMP 50 mg/ml concentrate 100 + Saline 2400) of the same molecule?
**A.** White insoluble precipitate from the first drop

**Q.** And the Appearance ([2]; NMP 100 mg/ml concentrate 100 + Saline 2400)?
**A.** White insoluble precipitate from the first drop

**Q.** And the Appearance ([3]; 100 mg/mL concentrate in BnOH 50 + TW80 50 + Saline 1150)?
**A.** White precipitate, milky solution

**Q.** What about the Appearance ([3]; 100 mg/mL concentrate in DMA 50 + TW80 50 + Saline 1150) of the same molecule?
**A.** Clear and limpid solution

**Q.** What about the Appearance ([3]; 100 mg/mL concentrate in DMSO 50 + TW80 50 + Saline 1150) of the same molecule?
**A.** Clear and limpid solution

**Q.** What about the Appearance ([3]; 100 mg/mL concentrate in EtOH 50 + TW80 50 + Saline 1150) of the same molecule?
**A.** White precipitate, milky solution

**Q.** What about the Appearance ([3]; 100 mg/mL concentrate in NMP 50 + TW80 50 + Saline 1150) of the same molecule?
**A.** Clear and limpid solution

**Q.** And the Appearance ([3]; concentrate in TW80 50 + WFI 50 + Saline 1150)?
**A.** White precipitate, milky solution

**Q.** And the Assay content [3, 5]?
**A.** substantially unchanged

**Q.** And the Purity [3, 5]?
**A.** substantially unchanged

**Q.** Which results are given for `C[C@H](NP(=O)(OC[C@H]1O[C@@H](n2ccc(N)nc2=O)C(F)(F)[C@@H]1O)Oc1ccccc1)C(=O)OCc1ccccc1` (stereo partly drawn) [NUC-1031, 2′-deoxy-2′,2′-difluoro-D-cytidine-5′-O-[phenyl (benzoxy-L-alaninyl)] phosphate]?
**A.** Stability (to precipitation and to degradation) ([4]; S-isomer alone or mixture of R and S epimers at 4, 8 and 10 mg/mL, 48 hours after dilution in 0.45% and 0.9% saline, pH 4.5, 6.0 and 7.0, not stirred): stable; Osmolarity ([4]; all of the NUC-1031 solutions): acceptable for peripheral administration
